Experimental data taken from US8557800B2, “Sphingosine kinase inhibitors” (Apogee Biotechnology Corporation, priority 2005, dated 2013).
Several values for one entry are separate records, joined by “and”; a condition that tells them apart may be missing. Equal entries are not always repeated.

Legend:
PKBα = PKBα (Homo sapiens, UniProt P31749); test: Kinase selectivity panel; format: biochemical; settings: read-out: percent of control activity, PKBα
Procedure: (§1) A common problem with attempts to develop protein kinase inhibitors is the lack of selectivity toward the target kinase since the majority of these compounds interact with nucleotide-binding domains that are highly conserved among kinases. […] The compound was tested at a single concentration of 50 μM.

cSrc = cSrc (Homo sapiens, UniProt P12931); test: Kinase selectivity panel; format: biochemical; settings: read-out: percent of control activity, cSrc
cSrc, sequence (P12931 whole entry, species assumed): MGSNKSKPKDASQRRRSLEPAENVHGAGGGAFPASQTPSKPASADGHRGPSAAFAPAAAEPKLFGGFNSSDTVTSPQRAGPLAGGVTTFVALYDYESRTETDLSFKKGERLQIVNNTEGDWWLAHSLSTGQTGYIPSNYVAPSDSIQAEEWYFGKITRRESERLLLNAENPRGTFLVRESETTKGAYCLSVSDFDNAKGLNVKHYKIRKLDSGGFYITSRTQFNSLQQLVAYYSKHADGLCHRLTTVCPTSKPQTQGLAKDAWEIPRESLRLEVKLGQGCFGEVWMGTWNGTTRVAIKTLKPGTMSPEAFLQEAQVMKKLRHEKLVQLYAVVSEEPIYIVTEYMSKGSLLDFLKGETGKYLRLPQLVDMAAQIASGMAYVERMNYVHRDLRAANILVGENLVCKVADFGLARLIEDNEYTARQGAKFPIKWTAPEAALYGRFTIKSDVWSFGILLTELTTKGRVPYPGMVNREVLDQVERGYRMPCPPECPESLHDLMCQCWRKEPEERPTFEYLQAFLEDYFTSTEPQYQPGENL
Procedure: as §1

PKBγ = PKBγ (Homo sapiens, UniProt Q9Y243); test: Kinase selectivity panel; format: biochemical; settings: read-out: percent of control activity, PKBγ
PKBγ, sequence (Q9Y243 whole entry, species assumed): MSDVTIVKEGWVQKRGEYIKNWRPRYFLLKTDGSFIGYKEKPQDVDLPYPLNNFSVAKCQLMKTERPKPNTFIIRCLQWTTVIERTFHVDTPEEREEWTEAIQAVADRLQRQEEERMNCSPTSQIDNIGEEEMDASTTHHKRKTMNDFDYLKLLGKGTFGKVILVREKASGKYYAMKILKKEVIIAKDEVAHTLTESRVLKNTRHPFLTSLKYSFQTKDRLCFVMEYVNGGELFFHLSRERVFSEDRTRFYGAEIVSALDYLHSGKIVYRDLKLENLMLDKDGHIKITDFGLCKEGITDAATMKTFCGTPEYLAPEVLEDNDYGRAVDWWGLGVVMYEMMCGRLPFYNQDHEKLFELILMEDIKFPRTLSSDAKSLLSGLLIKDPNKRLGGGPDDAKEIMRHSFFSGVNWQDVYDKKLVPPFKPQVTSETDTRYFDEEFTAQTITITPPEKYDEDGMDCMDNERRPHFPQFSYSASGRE
Procedure: as §1

Fyn = Fyn (Homo sapiens, UniProt P06241); test: Kinase selectivity panel; format: biochemical; settings: read-out: percent of control activity, Fyn
Fyn, sequence (P06241 whole entry, species assumed): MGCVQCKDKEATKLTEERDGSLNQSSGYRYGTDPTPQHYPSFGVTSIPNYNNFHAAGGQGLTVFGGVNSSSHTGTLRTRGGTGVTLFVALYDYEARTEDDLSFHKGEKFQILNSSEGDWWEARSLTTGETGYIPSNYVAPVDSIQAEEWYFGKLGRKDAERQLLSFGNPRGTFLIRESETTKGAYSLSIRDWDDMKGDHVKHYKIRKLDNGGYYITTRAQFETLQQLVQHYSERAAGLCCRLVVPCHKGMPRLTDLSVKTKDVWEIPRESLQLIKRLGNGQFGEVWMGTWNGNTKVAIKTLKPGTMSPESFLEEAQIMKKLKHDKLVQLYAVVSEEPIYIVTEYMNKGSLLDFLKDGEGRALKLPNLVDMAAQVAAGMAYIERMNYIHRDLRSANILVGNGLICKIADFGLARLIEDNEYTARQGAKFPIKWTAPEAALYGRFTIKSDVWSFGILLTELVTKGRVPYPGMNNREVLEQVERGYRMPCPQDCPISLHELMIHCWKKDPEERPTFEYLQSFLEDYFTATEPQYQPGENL
Procedure: as §1

NFκB = test: TNFα-induced NFκB reporter cell line; format: cell-based; settings: fibroblasts, TNFα 6 hours
Procedure: FIG. 5. Inhibition of TNFα-induced activation of NFκB by Compound 62. Fibroblasts transfected with a TNFα-responsive promoter linked to luciferase were treated with the indicated concentrations of Compound 62 and then treated with TNFα for 6 hours. The amount of luciferase expressed by the cells was then measured by luminescence. Values represent the mean±sd luciferase activity in triplicate samples in a typical experiment.
The excellent aqueous solubility of Compound 62 allowed it to be evaluated in an NFκB reporter cell line (FIG. 5). Fibroblasts transfected with an NFκB response element linked to luciferase produce high levels of luciferase upon exposure to TNFα.

[1] = test system: male Lewis rats, adjuvant-induced arthritis; test: Adjuvant-induced arthritis model; format: in vivo, rat
Procedure: Adjuvant-induced arthritis is another widely used assay that recapitulates many features of human rheumatoid arthritis, and so is useful in the evaluation of new drug candidates. Age- and weight-matched male Lewis rats (150-170 g) were injected subcutaneously in the tail with 1 mg of Mycobacterium butyricum (Difco, killed dried) suspended in 0.1 ml of light mineral oil. Symptoms of immune reactivity were present after 2 weeks. Responsive rats were randomized into treatment groups, and received oral daily doses (1 ml) of: solvent alone (0.375% Tween-80); 100 mg/kg Compound 62; 35 mg/kg Compound 62; or 5 mg/kg Compound 62, or intraperitoneal injections of indomethacin (5 mg/kg) every other day as a positive control. The severity of disease in each animal was quantified by measurement of the hind paw thickness.

1025LU (melanoma) = test: Human tumor cell line panel, sulforhodamine B; format: cell-based; settings: 48 hours, mean ± sd
[2] = test system: retinal vascular permeability in diabetic rats; test: Diabetic retinopathy, streptozotocin rats; format: in vivo, rat; settings: 25 or 75 mg/kg ip 5 days per week, Day 45 to Day 87
Procedure: Male Sprague-Dawley rats weighing 150-175 g were used. Diabetes was produced by intraperitoneal injection of streptozotocin (65 mg/kg in citrate buffer) after overnight fasting. Sham-injected non-diabetic animals were also carried as controls. Blood glucose was measured three days post-injection and animals with blood glucose over 250 mg/dL were used as diabetic rats for the study. Blood glucose levels and body weights were monitored weekly throughout the study. On Day 45, retinal vascular permeability was measured in a group of control and diabetic rats (Antonetti et al., 1998, Diabetes 47: 1953, Barber et al., 2005, Invest Ophthalmol Vis Sci 46: 2210). […] Sections were dewaxed and viewed with an Olympus OM-2 fluorescence microscope fitted with a Sony CLD video camera. Fluorescence intensities of digital images were measured using Leica Confocal Software (Version 2.61, build 1538, LCS Lite, 2004). The average retinal intensity for each eye was then normalized to non-injected controls analyzed in the same manner and to the plasma fluorescence of the animal. Through serial sectioning of the eye, this technique enables quantification of varied vascular permeability in the retina (Antonetti et al., 1998, Diabetes 47: 1953, Barber et al., 2005, Ibid.). […]

Hep-G2 (liver) = test: Human tumor cell line panel, sulforhodamine B; format: cell-based; settings: HepG2, 48 hours, mean ± sd
Caco-2 (colon) = test: Human tumor cell line panel, sulforhodamine B; format: cell-based; settings: 48 hours, mean ± sd
A-498 (kidney) = test: Human tumor cell line panel, sulforhodamine B; format: cell-based; settings: A498, 48 hours, mean ± sd
physchem = settings: aqueous with cosolvent or surfactant or cyclodextrin
recombinant human SK = test: Inhibition of recombinant human SK, LC/MS/MS assay; format: biochemical; settings: 6 μg/ml compound
Summary of the method: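 Enzyme incubated with unlabeled sphingosine and ATP (1 mM, as in the radiometric format) for 30 min, then stopped and extracted with acetonitrile. S1P quantified by C8 reverse-phase HPLC–MS/MS against C17 sphingosine and C17 S1P internal standards using calibration curves.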

PKBα, sequence (P31749 whole entry, species assumed, the tested form may be a part): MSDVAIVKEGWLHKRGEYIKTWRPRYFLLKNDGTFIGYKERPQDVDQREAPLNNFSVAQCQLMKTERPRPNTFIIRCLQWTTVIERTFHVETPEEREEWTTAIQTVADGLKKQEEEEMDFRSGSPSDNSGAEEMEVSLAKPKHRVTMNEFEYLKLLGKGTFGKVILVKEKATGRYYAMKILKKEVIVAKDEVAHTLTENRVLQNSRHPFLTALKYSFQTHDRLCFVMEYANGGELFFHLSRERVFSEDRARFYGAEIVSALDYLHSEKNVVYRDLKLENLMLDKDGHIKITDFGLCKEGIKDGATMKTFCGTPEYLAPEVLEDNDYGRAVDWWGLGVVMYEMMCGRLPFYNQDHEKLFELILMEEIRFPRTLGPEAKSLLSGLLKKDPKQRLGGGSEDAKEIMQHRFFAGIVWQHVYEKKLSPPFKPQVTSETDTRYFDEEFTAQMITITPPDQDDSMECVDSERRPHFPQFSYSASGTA

Structure (SMILES): O=C(NCc1ccncc1)C12CC3CC(C1)CC(c1ccc(Cl)cc1)(C3)C2 [Compound 62, 3-(4-Chloro-phenyl)-adamantane-1-carboxylic acid (pyridin-4-ylmethyl)-amide]
- remaining activity at 50 µM (PKBα): 95 ± 2%
- remaining activity at 50 µM (cSrc): 115 ± 3%
- remaining activity at 50 µM (PKBγ): 105 ± 8%
- remaining activity at 50 µM (Fyn): 84 ± 5%
- activation of NFκB by TNFα (luciferase) (NFκB): dose-dependently suppressed
- reduction in the arthritic response (hind paw thickness) ([1]; 5 mg/kg oral daily): 13%
- reduction in the arthritic response (hind paw thickness) ([1]; 35 mg/kg oral daily): 42%
- reduction in the arthritic response (hind paw thickness) ([1]; 100 mg/kg oral daily): 76%
- IC50 (1025LU (melanoma)): 33.7 ± 2.7 µM
- FITC-BSA leakage into the retina vs untreated diabetic rats [2]: substantially reduced
- IC50 (Hep-G2 (liver)): 6 ± 2.6 µM
- IC50 (Caco-2 (colon)): 11.8 ± 5.6 µM
- IC50 (A-498 (kidney)): 12.2 ± 6 µM
- solubility (physchem): ≥ 15000 µg/mL and 30000 µM to 40000 µM
- Recombinant SK (% inhibition) (recombinant human SK): 13%
